# Data as given in US6087358A (priority 1997, dated 2000).
# System: Mycobacterium tuberculosis (multidrugresistant strain)
# Experiment: microbe, parasite or virus in culture
# Format: cell-based
# Settings: read-out: MIC, column C, 3(S) compounds
row,SMILES,MIC
1,O=[N+]([O-])c1cn2c(n1)OC[C@@H](OCc1ccc(OCc3ccccc3)cc1)C2 [PA-647],≤ 0.015 µg/mL
2,CC(C)(C)c1ccc(CO[C@@H]2COc3nc([N+](=O)[O-])cn3C2)cc1 [PA-653],≤ 0.015 µg/mL
3,CCCCc1ccc(CO[C@@H]2COc3nc([N+](=O)[O-])cn3C2)cc1 [PA-822],≤ 0.015 µg/mL
4,"O=[N+]([O-])c1cn2c(n1)OC[C@@H](OCc1ccc(OC(F)(F)F)cc1)C2 [PA-824, 3S 4-(Trifluromethoxy)benzyloxy-6-nitro-2H-3,4-dihydro-[2-1b]imidazopyran]",0.13 µg/mL
